# From PMC7473772 (eLife, 2020)
# Numbering of substitutions follows the chain as printed. Several values for one entry are separate records, joined by “and”; a condition that tells them apart may be missing. Equal values may be shown once. Read-outs that look alike come from different tables or passages of the source.
# Legend:
# [1] = test system: tbaqp2/tbaqp3 null cells expressing TbAQP2^I110W/L264R; format: cell-based, Trypanosoma brucei brucei
# [2] = biological target: TbAQP2 L118W (Trypanosoma brucei brucei, UniProt Q6ZXT3, L118W); experiment: [3H]-pentamidine transport; format: cell-based; conditions: AQP2 mutant L118W; n=6
# [3] = test system: tbaqp2 null (AQP2-KO); experiment: Drug sensitivity assay (resazurin); format: cell-based; conditions: Trypanosoma brucei, read-out: EC50 AQP2-KO AVG, AQP2-KO / tbaqp2 null; 48 h drug + 24 h resazurin
# [4] = biological target: TbAQP2/HAPT1 (Trypanosoma brucei brucei, UniProt Q6ZXT3); experiment: cell-based; format: cell-based
# [5] = test system: tbaqp2/tbaqp3 null cells expressing TbAQP2 L218W; experiment: microbe, parasite or virus in culture; format: cell-based, Trypanosoma brucei brucei
# [6] = test system: tbaqp2/tbaqp3 null cells; experiment: microbe, parasite or virus in culture; format: cell-based, Trypanosoma brucei brucei
# [7] = biological target: T1, 3×HA tagged TbAQP2 (Trypanosoma brucei brucei, UniProt Q6ZXT3); format: cell-based
# T1 construct: expressed in transfected cells; host or cells: T. brucei 2T1 bloodstream forms, tetracycline-induced
# [8] = biological target: TbAQP2 L218W (Trypanosoma brucei brucei, UniProt Q6ZXT3, L218W); experiment: [3H]-pentamidine transport; format: cell-based; conditions: AQP2 mutant L218W; n=4
# [9] = test system: tbaqp2/tbaqp3 null cells expressing TbAQP2 L218M; experiment: microbe, parasite or virus in culture; format: cell-based, Trypanosoma brucei brucei; conditions: Trypanosoma brucei
# [10] = test system: tbaqp2/tbaqp3 null cells expressing TbAQP2 L84W; experiment: microbe, parasite or virus in culture; format: cell-based, Trypanosoma brucei brucei
# [11] = biological target: TbAQP2^L258Y (Trypanosoma brucei brucei, UniProt Q6ZXT3, L258Y); experiment: [3H]-pentamidine transport; format: cell-based; conditions: 30 nM [3H]-pentamidine
# [12] = biological target: T2, aqp1/aqp2/aqp3 null cells expressing TbAQP2-WT (Trypanosoma brucei brucei, UniProt Q6ZXT3); experiment: Inhibition of [3H]-pentamidine uptake (dose response); format: cell-based; conditions: zero inhibitor point 0.01011
# T2 sequence (Q6ZXT3 1-312): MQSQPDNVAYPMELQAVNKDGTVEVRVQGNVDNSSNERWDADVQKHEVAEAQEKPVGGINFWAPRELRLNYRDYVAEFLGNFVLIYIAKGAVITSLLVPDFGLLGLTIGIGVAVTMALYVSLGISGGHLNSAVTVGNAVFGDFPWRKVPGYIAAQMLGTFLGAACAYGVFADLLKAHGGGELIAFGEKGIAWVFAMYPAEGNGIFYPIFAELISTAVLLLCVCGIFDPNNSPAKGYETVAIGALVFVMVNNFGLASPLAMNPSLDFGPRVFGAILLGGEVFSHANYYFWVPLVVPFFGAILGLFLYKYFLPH
# [13] = test system: tbaqp2/tbaqp3 null cells expressing TbAQP2 L118W; experiment: microbe, parasite or virus in culture; format: cell-based, Trypanosoma brucei brucei
# [14] = biological target: TbAQP2 L84M (Trypanosoma brucei brucei, UniProt Q6ZXT3, L84M); experiment: [3H]-pentamidine transport; format: cell-based; conditions: AQP2 mutant L84M; n=3
# [15] = biological target: TbAQP2^L84W/L118W (Trypanosoma brucei brucei, UniProt Q6ZXT3, L118W/L84W); experiment: [3H]-pentamidine transport; format: cell-based; conditions: AQP2 mutant L84W/118W; n=3
# [16] = test system: tbaqp2/tbaqp3 null cells expressing TbAQP2^L84W/L118W; experiment: Drug sensitivity assay (resazurin); format: cell-based, Trypanosoma brucei brucei; conditions: Fig. 4A, L84W/L118W in aqp2/aqp3 null, read-out: Alamar blue EC50, single repeats
# [17] = test system: tbaqp2/tbaqp3 null cells expressing TbAQP2^L258Y; format: cell-based, Trypanosoma brucei brucei
# [18] = test system: TbAQP2^I190T; experiment: cell-based; set-up: species or system Trypanosoma brucei brucei; conditions: TbAQP2^I190T cells; read-out: Km of lower affinity segment (LAPT1)
# [19] = biological target: T3, TbAQP2^I190T (Trypanosoma brucei brucei, UniProt Q6ZXT3, I190T); experiment: cell-based
# T3 sequence (Q6ZXT3 1-312 I190T): T2 sequence (Q6ZXT3 1-312) with I190T
# [20] = biological target: TbAQP2^I110W (Trypanosoma brucei brucei, UniProt Q6ZXT3, I110W); experiment: [3H]-pentamidine transport; format: cell-based; conditions: 30 nM [3H]-pentamidine
# [21] = biological target: TbAQP2^I190T/W192G (Trypanosoma brucei brucei, UniProt Q6ZXT3, I190T/W192G); format: cell-based; conditions: Fig. 3A, exp AQP016-AQP023; AQP2 mutant I190T/W192G
# [22] = Trypanosoma brucei, read-out: Alamar blue EC50, MEAN
# [23] = Trypanosoma brucei, read-out: Alamar blue EC50, single repeats
# [24] = Trypanosoma brucei, read-out: EC50 AVG
# [25] = read-out: Alamar blue EC50, single repeats
# [26] = read-out: Alamar blue EC50, MEAN
# [27] = Fig. 3A, exp AQP038-AQP041, AQP2 mutant I190T
# Chain of TbAQP2^I190T/W192G (Q6ZXT3 whole entry I190T/W192G): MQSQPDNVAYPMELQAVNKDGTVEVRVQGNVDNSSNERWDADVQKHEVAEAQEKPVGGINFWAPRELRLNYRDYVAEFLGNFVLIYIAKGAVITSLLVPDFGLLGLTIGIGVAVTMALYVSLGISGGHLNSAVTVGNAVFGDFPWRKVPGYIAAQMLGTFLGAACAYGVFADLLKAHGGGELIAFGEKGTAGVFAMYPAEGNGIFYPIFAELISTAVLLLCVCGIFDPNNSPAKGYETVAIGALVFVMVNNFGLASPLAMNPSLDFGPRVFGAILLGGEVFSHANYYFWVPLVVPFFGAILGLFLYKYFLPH
# Chain of TbAQP2 L118W (Q6ZXT3 whole entry L118W): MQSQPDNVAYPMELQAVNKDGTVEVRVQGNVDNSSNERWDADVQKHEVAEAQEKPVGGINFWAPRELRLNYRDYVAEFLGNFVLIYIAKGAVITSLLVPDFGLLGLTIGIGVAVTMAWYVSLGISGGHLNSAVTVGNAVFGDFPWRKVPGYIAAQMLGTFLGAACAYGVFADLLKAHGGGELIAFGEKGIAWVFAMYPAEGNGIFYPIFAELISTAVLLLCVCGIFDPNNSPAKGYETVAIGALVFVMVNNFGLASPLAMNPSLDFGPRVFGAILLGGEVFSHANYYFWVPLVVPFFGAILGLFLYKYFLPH
# Chain of TbAQP2 L84M (Q6ZXT3 whole entry L84M): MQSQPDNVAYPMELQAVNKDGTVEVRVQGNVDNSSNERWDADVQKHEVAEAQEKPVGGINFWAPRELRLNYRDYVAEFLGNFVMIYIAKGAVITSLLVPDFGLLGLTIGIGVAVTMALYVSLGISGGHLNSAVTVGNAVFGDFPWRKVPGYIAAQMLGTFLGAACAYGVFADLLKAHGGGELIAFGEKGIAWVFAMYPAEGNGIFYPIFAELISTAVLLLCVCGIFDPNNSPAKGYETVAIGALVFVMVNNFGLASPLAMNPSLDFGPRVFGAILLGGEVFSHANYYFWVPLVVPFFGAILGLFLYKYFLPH
# Chain of TbAQP2^I110W (Q6ZXT3 whole entry I110W): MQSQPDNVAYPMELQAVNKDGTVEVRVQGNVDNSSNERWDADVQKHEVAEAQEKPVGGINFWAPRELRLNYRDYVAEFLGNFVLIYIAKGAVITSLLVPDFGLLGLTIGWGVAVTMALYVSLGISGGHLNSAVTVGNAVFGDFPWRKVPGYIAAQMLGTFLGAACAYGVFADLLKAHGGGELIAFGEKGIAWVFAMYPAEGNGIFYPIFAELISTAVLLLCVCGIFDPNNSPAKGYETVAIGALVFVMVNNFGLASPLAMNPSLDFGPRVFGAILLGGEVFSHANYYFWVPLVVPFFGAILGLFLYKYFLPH
# Chain of TbAQP2 L218W (Q6ZXT3 whole entry L218W): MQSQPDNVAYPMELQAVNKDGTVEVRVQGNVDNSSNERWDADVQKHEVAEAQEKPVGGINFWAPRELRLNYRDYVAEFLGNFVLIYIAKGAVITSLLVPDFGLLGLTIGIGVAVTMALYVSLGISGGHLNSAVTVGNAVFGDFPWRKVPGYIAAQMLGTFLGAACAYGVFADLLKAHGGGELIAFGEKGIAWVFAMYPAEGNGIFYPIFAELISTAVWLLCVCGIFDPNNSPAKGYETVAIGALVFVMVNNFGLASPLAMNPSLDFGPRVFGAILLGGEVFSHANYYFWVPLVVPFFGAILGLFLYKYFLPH
# Chain of TbAQP2^L258Y (Q6ZXT3 whole entry L258Y): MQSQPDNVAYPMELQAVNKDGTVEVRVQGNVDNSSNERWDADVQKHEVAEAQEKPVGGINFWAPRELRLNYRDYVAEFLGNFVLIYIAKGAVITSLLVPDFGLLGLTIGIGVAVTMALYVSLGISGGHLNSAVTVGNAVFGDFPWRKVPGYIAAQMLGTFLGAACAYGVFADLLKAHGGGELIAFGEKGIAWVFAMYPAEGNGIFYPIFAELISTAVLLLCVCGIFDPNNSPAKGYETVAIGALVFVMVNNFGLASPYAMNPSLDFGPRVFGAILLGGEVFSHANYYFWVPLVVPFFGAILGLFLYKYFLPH
# Chain of TbAQP2^L84W/L118W (Q6ZXT3 whole entry L84W/L118W): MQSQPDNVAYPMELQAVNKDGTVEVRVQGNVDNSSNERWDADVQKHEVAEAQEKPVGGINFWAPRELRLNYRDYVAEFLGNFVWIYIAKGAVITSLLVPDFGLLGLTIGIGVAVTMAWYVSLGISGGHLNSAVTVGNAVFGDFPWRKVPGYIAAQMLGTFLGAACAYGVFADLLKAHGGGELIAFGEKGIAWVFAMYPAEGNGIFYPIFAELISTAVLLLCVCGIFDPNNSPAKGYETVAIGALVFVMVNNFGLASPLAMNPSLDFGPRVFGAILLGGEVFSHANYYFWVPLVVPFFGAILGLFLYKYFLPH
compound,measurement,setting,value
N=C(N)c1ccc(OCCCCCOc2ccc(C(=N)N)cc2)cc1 [Pentamidine],"EC50 as percent of AQP2/3 null EC50, MEAN",[1],101.41%
same,Pentamidine transport rate AVG,[2],0.0006283 pmol/10E7 cells/s
same,EC50,[3],130 nM
same,ΔG0,[4],-10.2 kcal/mol
same,ΔG^0 (binding energy of substrate-transporter pair),[4],-10.2 kcal/mol
same,δ(ΔG0),[4],0 kcal/mol
same,Ki,[4]; Ki,36 ± 0.6 nM
same,Ki,[4]; Ki / affinity,35 nM
same,EC50,[5]; [22],4.39 nM
same,EC50,[5]; [23],4 nM
same,EC50,[5]; [24],4.4 nM
same,EC50,[5]; [25],3.9 nM and 5.3 nM
same,"EC50, percent of AQP2/3 null EC50",[6],100.00%
same,"EC50 as percent of AQP2/3 null EC50, MEAN",[6],100.00%
same,"EC50 as percent of AQP2/3 null EC50, single repeats",[6],100%
same,EC50,[6]; [22],66.3 nM
same,EC50,[6]; [23],69.3 nM
same,EC50,[6]; [26],72.3 nM
same,EC50,[6]; [25],52.1 nM and 77.6 nM and 77.5 nM and 68.9 nM and 70.5 nM
same,Effect on TbAQP2 turnover rate,[7],identical turnover rates
same,Pentamidine transport rate AVG,[8],0.002093 pmol/10E7 cells/s
same,EC50,[9]; [26],0.63 nM
same,EC50,[9]; read-out: EC50 AVG,0.63 nM
same,EC50,[10]; [22],32 nM
same,EC50,[10]; [23],34.5 nM
same,EC50,[10]; [24],32 nM
same,EC50,[10]; [25],33.6 nM and 27.8 nM
same,Pentamidine transport rate,[11],0.0004 pmol/10E7 cells/s
same,pentamidine uptake,[12]; log[inhibitor] -3.60,-1.5e-19
same,pentamidine uptake,[12]; log[inhibitor] -6.48,0.001052
same,pentamidine uptake,[12]; log[inhibitor] -7.00,0.005102
same,pentamidine uptake,[12]; log[inhibitor] -7.52,0.006394
same,pentamidine uptake,[12]; log[inhibitor] -8.00,0.007854
same,pentamidine uptake,[12]; log[inhibitor] -8.48,0.008733
same,pentamidine uptake,[12]; log[inhibitor] -9.00,0.008545
same,pentamidine uptake,[12]; log[inhibitor] -9.48,0.009352
same,EC50,[13]; [22],46.3 nM
same,EC50,[13]; [23],52.4 nM
same,EC50,[13]; [24],46.3 nM
same,EC50,[13]; [25],40.8 nM and 45.7 nM
same,Pentamidine transport rate AVG,[14],0.003585 pmol/10E7 cells/s
same,Pentamidine transport rate AVG,[15],0.0002985 pmol/10E7 cells/s
same,EC50,[16],65.7 nM
same,EC50,[16]; Trypanosoma brucei,53.4 nM
same,"EC50, percent of AQP2/3 null EC50",[17],0.50%
same,Km,[18],59.9 ± 9.1 µM
same,IC50,[19],30.9 ± 12.2 nM
same,"Pentamidine transport rate as percent of +AQP2-WT, AVG",[19]; [27],2.728%
same,"Pentamidine transport rate, AVG",[19]; [27],0.0008657 pmol/10E7 cells/s
same,"Pentamidine transport rate, single experiments",[19]; [27],0.0007167 pmol/10E7 cells/s and 0.001156 pmol/10E7 cells/s and 0.0009528 pmol/10E7 cells/s and 0.0006372 pmol/10E7 cells/s
same,Pentamidine transport rate,[20],0.000216 pmol/10E7 cells/s
same,"Pentamidine transport rate as percent of +AQP2-WT, AVG",[21],2.70%
same,"Pentamidine transport rate, AVG",[21],0.0005659 pmol/10E7 cells/s
